From paper PMC8041276 (ACS Chemical Neuroscience, 2021)

Legend:
[1] = molecular target: T1, 5-HT6R (Homo sapiens, UniProt P50406); assay: Basal cAMP production (constitutive Gs signaling) in NG108-15 cells transiently expressing 5-HT6R, CAMYEL BRET; type: cell-based; parameters: expressed in transfected cells; host or cells: NG108-15 (transient, Lipofectamine 2000, cotransfected with the CAMYEL sensor); details: for functional profile: 5-HT6R-dependent Gs signaling, NG108-15 cells; for IC50: decrease of basal cAMP, NG108-15 cells transiently expressing 5-HT6R
T1 sequence (P50406 whole entry): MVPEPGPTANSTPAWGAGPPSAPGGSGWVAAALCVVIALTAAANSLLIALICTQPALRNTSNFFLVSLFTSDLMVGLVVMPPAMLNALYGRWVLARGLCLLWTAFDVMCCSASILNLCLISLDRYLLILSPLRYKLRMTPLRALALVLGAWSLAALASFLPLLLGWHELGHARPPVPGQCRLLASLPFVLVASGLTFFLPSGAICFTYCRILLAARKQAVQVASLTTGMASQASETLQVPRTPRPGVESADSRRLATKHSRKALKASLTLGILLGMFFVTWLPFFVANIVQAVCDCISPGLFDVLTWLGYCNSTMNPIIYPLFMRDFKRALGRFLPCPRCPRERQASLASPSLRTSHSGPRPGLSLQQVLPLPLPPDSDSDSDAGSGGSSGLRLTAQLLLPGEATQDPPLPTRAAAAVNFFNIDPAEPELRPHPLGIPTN
Protocol: NG108-15 cells were grown in Dulbecco’s modified Eagle’s medium (DMEM) supplemented with 10% dialyzed fetal calf serum, 2% hypoxanthine/aminopterin/thymidine (Life Technologies), and antibiotics. cAMP measurement was performed in cells transiently expressing 5-HT6R using the bioluminescence resonance energy transfer (BRET) sensor for cAMP, CAMYEL (cAMP sensor using YFP-Epac-RLuc).[45] NG108-15 cells were cotransfected in suspension with 5-HT6R (0.5 μg DNA/million cells) and CAMYEL constructs (1 μg DNA/million cells), using Lipofectamine 2000 according to the manufacturer’s protocol, and plated in white 96-well plates (Greiner) at a density of 50 000 cells per well. […] Coelanterazine H (Molecular Probes) was added at a final concentration of 5 μM and left at room temperature for 5 min. BRET was measured using a Mithras LB 940 plate reader (Berthold Technologies).

[2] = molecular target: T2, 5-HT2AR (Homo sapiens, UniProt P28223); assay: [3H]-ketanserin radioligand binding assay, CHO-K1 cells; details: mean of three experiments
T2 construct: host or cells: CHO-K1
T2 sequence (P28223 whole entry): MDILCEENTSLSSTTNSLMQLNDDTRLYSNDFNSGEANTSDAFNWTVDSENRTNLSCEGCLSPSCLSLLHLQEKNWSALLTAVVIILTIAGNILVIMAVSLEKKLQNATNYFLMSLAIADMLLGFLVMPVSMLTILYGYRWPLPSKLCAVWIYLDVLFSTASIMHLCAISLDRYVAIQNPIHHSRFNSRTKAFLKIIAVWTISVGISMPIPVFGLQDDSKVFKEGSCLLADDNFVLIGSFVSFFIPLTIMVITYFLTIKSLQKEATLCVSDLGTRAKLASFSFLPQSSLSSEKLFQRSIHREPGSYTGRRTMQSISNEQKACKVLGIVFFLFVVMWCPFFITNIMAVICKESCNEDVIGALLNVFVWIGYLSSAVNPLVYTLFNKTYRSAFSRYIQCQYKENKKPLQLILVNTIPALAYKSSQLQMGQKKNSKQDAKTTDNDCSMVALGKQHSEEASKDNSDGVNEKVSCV

[3] = molecular target: T1, 5-HT6R; assay: [3H]-LSD radioligand binding assay, HEK293 cells stably expressing human 5-HT6R; parameters: expressed in transfected cells; details: mean of three independent experiments
Protocol: Final compounds were evaluated in the [^3H]-LSD binding assay using HEK293 cells with stable expression of human 5-HT6R. […] Because the fluorine atom might affect the affinity at target protein as well as physicochemical and pharmacokinetic properties of compound,[22] fluorine substitution at the 2-phenyl ring was applied. […] The analysis of the binding mode of 18 and 28 (Figure 2A) confirmed that the 2-phenyl moiety is placed in the hydrophobic cavity between transmembrane domains (TMs) 4–6.
All experiments were carried out according to the previously published procedures.[41]−[43] HEK293 cells stably expressing human 5-HT1A, 5-HT6, 5-HT7b, and D2L receptors (prepared with the use of Lipofectamine 2000) or CHO-K1 cells with plasmid containing the sequence coding for the human serotonin 5-HT2A receptor (PerkinElmer) were maintained at 37 °C in a humidified atmosphere containing 5% CO2 and grown in Dulbecco’s modified Eagle’s medium containing 10% dialyzed fetal bovine serum and 500 μg/mL G418 sulfate. For membrane preparation, cells were cultured in 150 cm^2 flasks, grown to 90% confluence, washed twice with prewarmed to 37 °C phosphate buffered saline (PBS), and centrifuged (200g) in PBS containing 0.1 mM EDTA and 1 mM dithiothreitol. Prior to membrane preparation, pellets were stored at −80 °C. Cell pellets were thawed and homogenized in 10 volumes of assay buffer using an Ultra Turrax tissue homogenizer and centrifuged twice at 35 000g for 15 min at 4 °C, with incubation for 15 min at 37 °C between the centrifugations. The composition of the assay buffers was experimentally selected to achieve the maximum signal window (more details in Supporting Information). All assays were carried out in a total volume of 200 μL in 96-well plates for 1 h at 37 °C except 5-HT1AR and 5-HT2AR which were incubated at room temperature and 27 °C, respectively. The process of equilibration was terminated by rapid filtration through Unifilter plates with a 96-well cell harvester, and radioactivity retained on the filters was quantified on a Microbeta plate reader (PerkinElmer, USA). For displacement studies the assay samples contained the following as radioligands (PerkinElmer, USA): 2.5 nM [^3H]-8-OH-DPAT (135.2 Ci/mmol) for 5-HT1AR; 1 nM [^3H]-ketanserin (53.4 Ci/mmol) for 5-HT2AR; 2 nM [^3H]-LSD (83.6 Ci/mmol) for 5-HT6R; 0.8 nM [^3H]-5-CT (39.2 Ci/mmol) for 5-HT7R or 2.5 nM [^3H]-raclopride (76.0 Ci/mmol) for D2LR. Nonspecific binding was defined in the presence of 10 μM 5-HT in 5-HT1AR and 5-HT7R binding experiments, whereas 20 μM mianserin, 10 μM methiothepine, and 10 μM haloperidol were used in 5-HT2AR, 5-HT6R, and D2LR assays, respectively. Each compound was tested in triplicate at seven concentrations (10^–10–10^–4 M). The inhibition constants (Ki) were calculated from the Cheng–Prusoff equation.[44]

[4] = Metabolic stability in rat liver microsomes; type: in vitro ADME; details: male, pH 7.4, 10 μM compound, read-out: intrinsic clearance
Protocol: Metabolic stability of compounds 27 and 28 was analyzed using incubation systems composed of tested compound (10 μM), rat liver microsomes (RLMs, microsomes from rat male liver, pooled; 0.4 mg/mL; Sigma-Aldrich), NADPH-regenerating system (NADP+, glucose-6-phosphate, and glucose-6-phosphate dehydrogenase in 100 mM potassium buffer, pH 7.4; all from Sigma-Aldrich) and potassium buffer, pH 7.4. […] First, all samples containing incubation mixture (without NADPH-regenerating system) were preincubated in thermoblock at 37 °C for 10 min. Then reaction was initiated by the addition of NADPH-regenerating system. In control samples NADPH-regenerating system was replaced with potassium buffer. Probes were incubated for 30 and 60 min at 37 °C. After addition of internal standard (pentoxifylline, 10 μM) biotransformation process was stopped by addition of perchloric acid. Next, samples were centrifuged and supernatants were analyzed using UPLC/MS (Waters Corporation, Milford, MA). All experiments were run in duplicates. Half-life time was evaluated using nonlinear regression model using GraphPad Prism software, and intrinsic clearance was calculated from the equation Clint = (volume of incubation [μL]/protein in the incubation [mg])0.693/t1/2.[46]

In the case of O=C(N[C@@H]1CCNC1)c1ccn(S(=O)(=O)c2cccc(Cl)c2)c1-c1ccc(F)cc1 [Compound 27, (R)-2-(4-Fluorophenyl)-1-[(3-chlorophenyl)sulfonyl]-N-(pyrrolidin-3-yl)-1H-pyrrole-3-carboxamide], the functional profile [1] is reported as “inverse agonist”, the IC50 [1] is reported as 0.265 µM and the Ki [2] is reported as 13.5 µM. It also gave a Ki [3] of 0.03 µM and a microsomal CLint at 10 μM [4] of 0.82 µL/min/mg.

In the case of O=C(N[C@H]1CCNC1)c1ccn(S(=O)(=O)c2cccc(Cl)c2)c1-c1ccc(F)cc1 [Compound 28, (S)-2-(4-Fluorophenyl)-1-[(3-chlorophenyl)sulfonyl]-N-(pyrrolidin-3-yl)-1H-pyrrole-3-carboxamide], the functional profile [1] is reported as “inverse agonist”, the IC50 [1] is reported as 0.14 µM and the Ki [2] is reported as 8.57 µM. For the same molecule, the Ki [3] was 0.022 µM and the microsomal CLint at 10 μM [4] was 1.03 µL/min/mg.
